Several values for one entry are separate records, joined by “and”; a condition that tells them apart may be missing. Equal entries are not always repeated. One block for each compound: values may come before it.
Legend:
D-AAO = molecular target: T1, D-AAO (Sus scrofa, UniProt P00371); experiment: D-AAO microplate test for detection of D-amino acids; type: biochemical, swine; settings: raw OD
T1 construct: purchased Sigma A-5222; host or cells: swine kidney
Description: The D-AAO/HRP test described here above can also be used for this purpose with slight modifications. For that purpose, the racemase reaction step should be skipped and the microplate test should start straightforward at the II-1-2.1-2 step described above with the following remarks:
1) Standard: It should not be an equimolar mixture of D- and L-amino acid, but rather a serial dilution of D-Amino acids. The choice of amino acid is made according to the interest of the D-amino acid under investigation. The final volume in wells should be of 87 μl.
2) Negative control: It is made with the L-enantiomer of the D-amino acid under investigation. The final volume should be 87 μl.
3) Blank: It is made with 87 μl buffer*. (See paragraph II.1.1 Materials.)
4) Samples: The samples to be tested should be adjusted to pH 8.3 with buffer* and their final volumes should be of 87 μl per well.
5) Then, the procedure follows steps 3) to 6), as above.
Different L- and D-amino acids were tested, namely Tyrosine (Tyr), Valine (Val), Threonine (Thr), Glutamic acid (Glu), Lysine (Lys) and Tryptophan (Try).

D-AAO/HRP = D-AAO/HRP (Sus scrofa, UniProt P00371); experiment: Interference with the D-AAO/HRP reaction; type: biochemical, swine
Chain of D-AAO/HRP (P00371 whole entry): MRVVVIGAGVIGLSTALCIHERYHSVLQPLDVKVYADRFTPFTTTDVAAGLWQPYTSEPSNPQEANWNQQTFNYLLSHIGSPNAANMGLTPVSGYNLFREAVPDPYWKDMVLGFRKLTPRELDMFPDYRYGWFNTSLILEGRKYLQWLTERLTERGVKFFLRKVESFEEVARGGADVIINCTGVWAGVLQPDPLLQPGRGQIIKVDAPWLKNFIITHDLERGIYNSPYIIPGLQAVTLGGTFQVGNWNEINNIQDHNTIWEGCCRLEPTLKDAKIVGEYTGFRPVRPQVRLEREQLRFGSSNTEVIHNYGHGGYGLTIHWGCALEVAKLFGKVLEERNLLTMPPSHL

B cells = settings: TcPRAC inhibited by the compound; cited from earlier work
CsPR = molecular target: T2, CsPR (Acetoanaerobium sticklandii, UniProt E3PTZ4); settings: cited from earlier work
T2 sequence (E3PTZ4 1-335): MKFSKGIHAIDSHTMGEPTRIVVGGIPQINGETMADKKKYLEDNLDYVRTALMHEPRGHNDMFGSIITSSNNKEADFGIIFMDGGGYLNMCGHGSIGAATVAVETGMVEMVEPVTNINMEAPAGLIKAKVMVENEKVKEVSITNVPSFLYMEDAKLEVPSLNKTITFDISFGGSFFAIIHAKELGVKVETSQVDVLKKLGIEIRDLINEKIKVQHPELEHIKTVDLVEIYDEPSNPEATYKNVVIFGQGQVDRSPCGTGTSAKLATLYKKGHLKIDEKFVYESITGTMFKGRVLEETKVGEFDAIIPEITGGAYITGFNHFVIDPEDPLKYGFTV

[1] = test system: non-infected monkey cell cultures
[2] = molecular target: native protein obtained from a soluble epimastigote fraction (proline racemase) (Trypanosoma cruzi, UniProt Q868H8); experiment: Kinetic assays using the native protein from a soluble epimastigote fraction; type: biochemical
Chain of native protein obtained from a soluble epimastigote fraction (proline racemase) (Q868H8 whole entry): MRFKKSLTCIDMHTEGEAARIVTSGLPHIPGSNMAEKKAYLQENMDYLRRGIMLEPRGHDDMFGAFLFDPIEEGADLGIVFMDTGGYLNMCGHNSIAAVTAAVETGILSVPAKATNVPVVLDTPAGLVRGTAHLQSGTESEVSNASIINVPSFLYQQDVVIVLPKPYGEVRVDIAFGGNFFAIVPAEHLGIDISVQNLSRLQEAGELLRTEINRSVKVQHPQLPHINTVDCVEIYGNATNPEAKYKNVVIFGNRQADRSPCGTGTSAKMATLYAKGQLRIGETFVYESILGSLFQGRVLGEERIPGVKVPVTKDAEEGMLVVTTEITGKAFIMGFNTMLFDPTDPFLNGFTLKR
Description: The progress of racemization reaction was monitored polarimetrically, as previously described (13). […] Values obtained were confirmed by using the Kaleïdagraph® program and Michaelis-Menten equation. […] C.

T1 sequence (P00371 whole entry): as the sequence (P00371 whole entry) above

SMILES: N[C@@H](CCC(=O)O)C(=O)O [D-Glu, Glutamic acid]
Optical density at 490 nm after D-AAO reaction (D-AAO; D-enantiomers, 6.25 mM): 0.147 and 0.116

SMILES: CC(C)[C@H](N)C(=O)O [L-Val, Valine]
Optical density at 490 nm after D-AAO reaction (D-AAO; L-enantiomers, 12.5 mM): 0.135 and 0.129

Optical density at 490 nm after D-AAO reaction (D-AAO; D-enantiomers, 6.25 mM): 1.317 and 0.991
SMILES: N[C@@H](Cc1ccc(O)cc1)C(=O)O [D-Tyr, Tyrosine]

effect on D-AAO/HRP reaction (D-AAO/HRP): Inhibits
SMILES: O=C(O)[C@@H]1CCCN1 [L-Proline]

SMILES: N[C@@H](CCC(=O)O)C(=O)O [L-Glu, Glutamic acid]
Optical density at 490 nm after D-AAO reaction (D-AAO; L-enantiomers, 12.5 mM): 0.131 and 0.141

Optical density at 490 nm after D-AAO reaction (D-AAO; L-enantiomers, 12.5 mM): 0.124 and 0.128
SMILES: C[C@@H](O)[C@H](N)C(=O)O [L-Thr, Threonine]

SMILES: CC(C)[C@H](N)C(=O)O [D-Val, Valine]
Optical density at 490 nm after D-AAO reaction (D-AAO; D-enantiomers, 6.25 mM): 1.683 and 1.612

Optical density at 490 nm after D-AAO reaction (D-AAO; D-enantiomers, 6.25 mM): 0.215 and 0.157
SMILES: C[C@@H](O)[C@H](N)C(=O)O [D-Thr, Threonine]

Optical density at 490 nm after D-AAO reaction (D-AAO; L-enantiomers, 12.5 mM): 0.193 and 0.141
SMILES: N[C@@H](Cc1ccc(O)cc1)C(=O)O [L-Tyr, Tyrosine]

SMILES: NCCCC[C@H](N)C(=O)O [L-Lys, Lysine]
Optical density at 490 nm after D-AAO reaction (D-AAO; L-enantiomers, 12.5 mM): 0.125 and 0.131

SMILES: O=C(O)c1ccc[nH]1 [PAC, pyrrole-2-carboxylic acid]
effect on D-AAO/HRP reaction (D-AAO/HRP): does not influence DAAO/HRP reaction
TcPRAC B cell mitogenic ability (B cells): total loss of TcPRAC B cell mitogenic ability
Ki (CsPR): 18 µM
interference with cellular growth [1]: do not interfere with cellular growth
Ki [2]: 1.15 µM

SMILES: N[C@@H](Cc1c[nH]c2ccccc12)C(=O)O [D-Try, Tryptophan]
Optical density at 490 nm after D-AAO reaction (D-AAO; D-enantiomers, 6.25 mM): 0.615 and 0.662

SMILES: N[C@@H](Cc1c[nH]c2ccccc12)C(=O)O [L-Try, Tryptophan]
Optical density at 490 nm after D-AAO reaction (D-AAO; L-enantiomers, 12.5 mM): 0.131 and 0.138

SMILES: NCCCC[C@H](N)C(=O)O [D-Lys, Lysine]
Optical density at 490 nm after D-AAO reaction (D-AAO; D-enantiomers, 6.25 mM): 0.243 and 0.157

Optical density at 490 nm after D-AAO reaction (D-AAO; 0.05 mM): 0.173
Optical density at 490 nm after D-AAO reaction (D-AAO; 0.09 mM): 0.213 and 0.215
Optical density at 490 nm after D-AAO reaction (D-AAO; 0.19 mM): 0.308 and 0.32
Optical density at 490 nm after D-AAO reaction (D-AAO; 0.39 mM): 0.496 and 0.504
Optical density at 490 nm after D-AAO reaction (D-AAO; 0.77 mM): 0.809 and 0.824
Optical density at 490 nm after D-AAO reaction (D-AAO; 1.55 mM): 1.234 and 1.221
Optical density at 490 nm after D-AAO reaction (D-AAO; 3.09 mM): 1.716 and 1.879
Optical density at 490 nm after D-AAO reaction (D-AAO; 6.19 mM): 1.983 and 1.949
Optical density at 490 nm after D-AAO reaction (D-AAO; 12.37 mM): 1.814 and 1.976
Optical density at 490 nm after D-AAO reaction (D-AAO; 24.75 mM): 1.757 and 1.885
Optical density at 490 nm after D-AAO reaction (D-AAO; 49.5 mM): 1.961 and 2.004
SMILES: O=C(O)[C@H]1CCCN1 [D-pro, D-Proline]
